Consider two molecules from US7514254B2, “Plant-derived alkaline alpha-galactosidase” (The State of Israel, Ministry of Agriculture & Rural …, priority 1998, dated 2009).

Where only a bound is given, the exact number is not on record here.

Assay [1] deals with Pseudomonas fluorescens H-601 alpha-galactosidase. To be noted: Hashimoto et al. 1991; relative Km values; cited from earlier work.
The test system of assay [2] is melon (Cucumis melo) fruit acid form alpha-galactosidase. In words: Substrate kinetics (Lineweaver-Burk) of acid alpha-galactosidase. Format: biochemical, muskmelon (Cucumis melo L. cv C-8). The protocol: (§1) For routine analysis and monitoring the activity in the purification steps, alpha-galactosidase was assayed as described by Smart and Pharr (“Characterization of alpha-galactosidase from cucumber leaves”, Plant Physiology, 66:731-734, 1980), using p-nitrophenyl alpha-galactoside (pNPG) as substrate. […] The reaction was terminated after 10 min by adding 1 ml of 5% (w/v) Na2CO3 and activity expressed as nmol nitrophenol per min as measured at 410 nm. […] The assay was started by adding 50 μl enzyme preparation at 35 C and terminated after 10 to 20 min by 2 min boiling. […] For the partial purification of the acid form of alpha-galactosidase the fractions active at pH 5.5 were pooled and concentrated by reverse dialysis against solid sucrose. […] The active fractions were then desalted by dialysis against buffer A for 12 hours with two changes of the buffer. This enzyme fraction was used for the characterization of the acidic form of alpha-galactosidase. […] The substrate specificity of the alpha-galactosidases was tested with pNPG, stachyose, raffinose, melibiose or guar gum (Sigma).

The test system of assay [3] is Escherichia coli K12 alpha-galactosidase. The following applies: Schmid and Schmitt 1976; cited from earlier work.
Assay [4] deals with T1, melon (Cucumis melo) fruit alkaline alpha-galactosidase Form II (Cucumis melo, UniProt Q84NI6).
T1 construct: native 102 kDa, denatured 92 kDa; assayed at pH 7.5
T1 sequence (Q84NI6 1-772): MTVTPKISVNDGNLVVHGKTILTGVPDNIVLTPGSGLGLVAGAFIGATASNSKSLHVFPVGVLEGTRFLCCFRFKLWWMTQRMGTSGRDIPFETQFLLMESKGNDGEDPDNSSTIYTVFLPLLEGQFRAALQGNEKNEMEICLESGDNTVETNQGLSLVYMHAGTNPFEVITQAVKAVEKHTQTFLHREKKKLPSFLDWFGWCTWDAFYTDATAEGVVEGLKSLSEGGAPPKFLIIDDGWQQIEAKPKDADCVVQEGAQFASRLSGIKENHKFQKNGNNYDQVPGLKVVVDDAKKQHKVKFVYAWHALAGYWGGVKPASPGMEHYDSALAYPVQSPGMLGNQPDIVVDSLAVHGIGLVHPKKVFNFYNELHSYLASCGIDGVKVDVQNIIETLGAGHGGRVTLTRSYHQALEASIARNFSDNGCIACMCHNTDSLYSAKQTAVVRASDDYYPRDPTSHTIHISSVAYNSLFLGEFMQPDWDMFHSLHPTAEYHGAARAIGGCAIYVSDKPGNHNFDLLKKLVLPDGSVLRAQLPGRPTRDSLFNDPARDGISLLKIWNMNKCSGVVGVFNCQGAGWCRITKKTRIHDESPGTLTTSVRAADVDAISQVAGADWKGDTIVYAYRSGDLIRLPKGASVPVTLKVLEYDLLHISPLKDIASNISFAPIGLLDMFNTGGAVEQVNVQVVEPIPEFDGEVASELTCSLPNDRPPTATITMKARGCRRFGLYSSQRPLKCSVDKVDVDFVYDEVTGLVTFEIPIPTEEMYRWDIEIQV
Kind of assay: Inhibition of alkaline alpha-galactosidase Form II by alternative substrate (galactose release). The following applies: read-out: inhibition by excess raffinose (galactose release). The class given is biochemical, muskmelon (Cucumis melo L. cv C-8). On the procedure: (§2) For routine analysis and monitoring the activity in the purification steps, alpha-galactosidase was assayed as described by Smart and Pharr (“Characterization of alpha-galactosidase from cucumber leaves”, Plant Physiology, 66:731-734, 1980), using p-nitrophenyl alpha-galactoside (pNPG) as substrate. Reaction was initiated by adding 50 μl enzyme aliquot to either 200 μl 100 mM pH 5.5 McIlvaine buffer or 100 mM pH 7.5 HEPES buffer, containing 5 mM pNPG at 35 C. The reaction was terminated after 10 min by adding 1 ml of 5% (w/v) Na2CO3 and activity expressed as nmol nitrophenol per min as measured at 410 nm. […] The assay was started by adding 50 μl enzyme preparation at 35 C and terminated after 10 to 20 min by 2 min boiling.

For assay [5], the system named is Cucurbita pepo leaf alkaline alpha-galactosidase ("LIV" enzyme). Kind of assay: Substrate kinetics of Cucurbita pepo leaf alkaline alpha-galactosidase (Gaudreault and Webb). The class given is biochemical. To be noted: calculated for prior art "LIV" enzyme of Gaudreault and Webb.
In assay [6] the target is T1, melon (Cucumis melo) fruit alkaline alpha-galactosidase Form II. Kind of assay: Substrate kinetics (Lineweaver-Burk) of alkaline alpha-galactosidase Form II. The class given is biochemical, muskmelon (Cucumis melo L. cv C-8). The protocol: as §2
(§3) The fractions from the DEAE-Sepharose chromatography which were active at pH 7.5 were pooled and dialyzed against buffer A for 12 h prior to loading onto an HPLC ion exchange chromatography column (Mono-Q HR 5/5, Pharmacia, Uppsala, Sweden), previously equilibrated with buffer A. Bound proteins were eluted with a linear gradient of 0.1 to 0.45 M NaCl and the active fractions were detected using pNPG as substrate at pH 7.5 as described above. […] For the further purification of Form II the active fractions of the peak II were chromatographed on hydrophobic interaction chromatography. The fractions were pooled, brought to 1 M (NH4)2SO4 and loaded on to a hydrophobic interaction column (phenyl-Sepharose CL-4B, 0.5×12 cm, Pharmacia, Uppsala, Sweden) previously equilibrated with buffer A containing 1 M (NH4)2SO4. The protein was eluted with a reverse stepwise gradient from 1 to 0 M (NH4)2SO4 with 50 mM intervals in buffer A. Fractions containing the activity peak were collected and dialyzed for 12 h against buffer A and the dialysate was concentrated by reverse dialysis against solid sucrose. The enzyme, partially purified by hydrophobic interaction chromatography, was used for the characterization of Form II. The active fractions from the hydrophobic interaction column were further purified. Active fractions were separated electrophoretically using a Mini Prep Cell (Bio-Rad Laboratories, Hercules, Calif.) for discontinuous native-PAGE with 7% polyacrylamide, according to manufacturer's instructions. Fractions (0.25 ml/fraction) were assayed at pH 7.5 with pNPG as substrate for the activity. The active fractions were pooled, concentrated by Vivaspin Concentrator (Vivascience LTD, Lincoln, England), and run in a 8% SDS-PAGE. Proteins in the SDS-PAGE were identified using Coomassie Blue staining.

For assay [7], the target named is T2, melon (Cucumis melo) fruit alkaline alpha-galactosidase Form I (Cucumis melo, UniProt Q84NI7).
T2 sequence (Q84NI7 1-754): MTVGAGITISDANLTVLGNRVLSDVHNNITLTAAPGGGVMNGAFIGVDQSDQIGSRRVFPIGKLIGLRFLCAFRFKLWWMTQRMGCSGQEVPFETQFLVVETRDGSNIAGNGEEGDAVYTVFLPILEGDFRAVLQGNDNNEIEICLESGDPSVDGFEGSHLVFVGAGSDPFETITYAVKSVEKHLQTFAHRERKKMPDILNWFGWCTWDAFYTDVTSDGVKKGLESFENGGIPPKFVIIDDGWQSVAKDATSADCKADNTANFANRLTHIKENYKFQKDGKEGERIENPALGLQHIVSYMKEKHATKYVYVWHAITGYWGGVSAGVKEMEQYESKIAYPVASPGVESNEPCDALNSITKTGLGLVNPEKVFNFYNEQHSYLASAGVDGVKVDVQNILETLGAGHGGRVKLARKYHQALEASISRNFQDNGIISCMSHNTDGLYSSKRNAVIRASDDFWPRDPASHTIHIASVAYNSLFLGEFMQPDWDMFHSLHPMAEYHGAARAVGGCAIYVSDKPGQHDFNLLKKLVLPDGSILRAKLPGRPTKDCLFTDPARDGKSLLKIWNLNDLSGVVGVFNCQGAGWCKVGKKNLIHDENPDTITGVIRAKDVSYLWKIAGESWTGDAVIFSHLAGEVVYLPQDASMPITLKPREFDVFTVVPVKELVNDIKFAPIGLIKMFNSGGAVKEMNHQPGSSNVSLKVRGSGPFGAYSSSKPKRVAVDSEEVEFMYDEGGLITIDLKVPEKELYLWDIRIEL
Kind of assay: Substrate kinetics (Lineweaver-Burk) of alkaline alpha-galactosidase Form I. The protocol: as §2, §3
(§4) Therefore, the active fractions from the Mono-Q column were used for the characterization of Form I. In addition, the Form I enzyme was further purified, as described in the following section.

In assay [8] the test system is Cucurbita pepo leaf alkaline alpha-galactosidase ("LIV" enzyme). The following applies: Gaudreault and Webb; alkaline form; cited from earlier work.
The target in assay [9] is T2, melon (Cucumis melo) fruit alkaline alpha-galactosidase Form I. In words: Inhibition of alkaline alpha-galactosidase Form I by galactose, pNPG as substrate. Format: biochemical, muskmelon (Cucumis melo L. cv C-8). Set-up: native 84 kDa, denatured 79 kDa; assayed at pH 7.5. On the procedure: as §2, §3, §4
Assay [10] relates to Cucurbita pepo leaf alkaline alpha-galactosidase. To be noted: 6.4 mM galactose; 7.5 mM pNPG, pH 7.5; cited from earlier work.
In assay [11] the target is T1, melon (Cucumis melo) fruit alkaline alpha-galactosidase Form II. In words: Inhibition of alkaline alpha-galactosidase Form II by galactose, pNPG as substrate. Format: biochemical, muskmelon (Cucumis melo L. cv C-8). The protocol: as §2
as §3, with “Active fractions were separated electrophoretically using a Mini Prep Cell (Bio-Rad Laboratories, Hercules, Calif.) for discontinuous native-PAGE with 7% polyacrylamide, according to manufacturer's instructions. Fractions (0.25 ml/fraction) were assayed at pH 7.5 with pNPG as substrate for the activity. The active fractions were pooled, concentrated by Vivaspin Concentrator (Vivascience LTD, Lincoln, England), and run in a 8% SDS-PAGE. Proteins in the SDS-PAGE were identified using Coomassie Blue staining.” left out

Assay [12] relates to melon (Cucumis melo) fruit acid form alpha-galactosidase. Kind of assay: Inhibition of acid alpha-galactosidase by galactose, pNPG as substrate. The class given is biochemical, muskmelon (Cucumis melo L. cv C-8). The protocol:
as §1

One may read the Km as the concentration of substrate that gives half-maximal velocity. Regarding `OC[C@H]1O[C@H](OC[C@H]2O[C@H](O[C@]3(CO)O[C@H](CO)[C@@H](O)[C@@H]3O)[C@H](O)[C@@H](O)[C@@H]2O)[C@H](O)[C@@H](O)[C@H]1O` [Raffinose, O-alpha-D-galactopyranosyl-(1-6)-O-alpha-D-glucopyranosyl-(1-2)-beta-D-fructofuranoside], the Michaelis constant (Km) in assay [1] is 17 mM; in assay [2] (Lineweaver-Burk) it was 4.2 mM; in assay [3] it was 60 mM; in assay [7] (Lineweaver-Burk) it was < 5 mM; in assay [8], 36.4 mM. Moreover, the Vmax/Km ratio was 0.17 in [2], 0.0039 in assay [5], 0.01 in assay [6] and 0.37 in [7]. The Vmax in assay [2] (Lineweaver-Burk) is given as 0.71 μmol mg^−1 protein min^−1; in [6] (Lineweaver-Burk) it was 0.28 μmol mg^−1 protein min^−1; in assay [7] (Lineweaver-Burk) it was 0.56 μmol mg^−1 protein min^−1. Besides, the inhibition at 80000 µM in assay [4] came to 35%.

Usually Ki stands for the equilibrium dissociation constant of an inhibitor or competing ligand from its target. In the case of `OC[C@H]1O[C@H](O)[C@H](O)[C@@H](O)[C@H]1O` [galactose, alpha-D-galactose], the inhibition at 8000 µM came to 8% in assay [9] (8 mM galactose, 10 mM pNPG, alkaline Form I) and 70% in [11] (8 mM galactose, 10 mM pNPG, read-out: reduction in activity by galactose). Further, the “inhibition type (galactose)” value in [9] (alkaline Form I, Lineweaver-Burk) was “competitive”; in assay [11] (Lineweaver-Burk), “competitive”; in assay [12] (Lineweaver-Burk), “competitive”. Besides, the Ki in [9] (alkaline Form I, competitive, Lineweaver-Burk) came out at 13000 µM; in assay [11] (competitive, Lineweaver-Burk), 1300 µM; in assay [12] (competitive, Lineweaver-Burk) it was 60 µM. For the same molecule, the “inhibition of catalytic activity by galactose (in words)” value in [9] (alkaline alpha galactosidase of the invention, FIG. 4D-F) is recorded as “no inhibition of catalytic activity”. Also, the “reduction of reaction velocity by galactose” value in [10] was 50%. Further, the “reduction in activity by galactose” value in [12] (8 mM galactose, 10 mM pNPG) is recorded as 65%.
